Measured values reported in US12583854B2, “KRAS G12C inhibitors and methods of using the same” (Amgen Inc., priority 2018, dated 2026).
Like-named read-outs stand apart in the source and are kept apart here.

Key:
[1] = system: Phosphorylation of ERK1/2 in MIA PaCa-2 cells; assay: Phospho-ERK1/2 MSD Assay; assay type: cell-based; details: EGF stimulation 10 ng/mL, 10 min, read-out: p-ERK IC50 (2 h)
Procedure: Phospho-ERK1/2 MSD Assay: MIA PaCa-2 (ATCC® CRL-1420™) and A549 (ATCC® CCL-185™) cells were cultured in RPMI 1640 Medium (ThermoFisher Scientific 11875093) containing 10% fetal bovine serum (ThermoFisher Scientific 16000044) and 1× penicillin-streptomycin-glutamine (ThermoFisher Scientific 10378016). Sixteen hours prior to compound treatment, MIA PaCa-2 were seeded in 96-well cell culture plates at a density of 25,000 cells/well and incubated at 37° C., 5% CO2. A compound dose-response titration was diluted in growth media, added to appropriate wells of a cell culture plate, and then incubated at 37° C., 5% CO2 for 2 (see Table 10). Following compound treatment, cells were stimulated with 10 ng/mL EGF (Roche 11376454001) for 10 min, washed with ice-cold Dulbecco's phosphate-buffered saline, no Ca^2+ or Mg^2+ (ThermoFisher Scientific 14190144), and then lysed in RIPA buffer (50 mM Tris-HCl pH 7.5, 1% Igepal, 0.5% sodium deoxycholate, 150 mM NaCl, and 0.5% sodium dodecyl sulfate) containing protease inhibitors (Roche 4693132001) and phosphatase inhibitors (Roche 4906837001). Phosphorylation of ERK1/2 in compound-treated lysates was assayed using Phospho-ERK1/2 Whole Cell Lysate kits (Meso Scale Discovery K151DWD) according to the manufacturer's protocol. Assay plates were read on a Meso Scale Discovery Sector Imager 6000, and data were analyzed using a 4-parameter logistic model to calculate IC50 values.

[2] = target: GDP-bound KRAS protein (aa 1-169), containing both G12C and C118A amino acid substitutions (Homo sapiens, UniProt P01116, C118A/G12C); assay: Coupled Nucleotide Exchange Assay; assay type: biochemical; details: 5 min compound pre-incubation; SOS-mediated nucleotide exchange, AlphaScreen
Procedure: Following compound pre-incubation, purified SOS protein (aa 564-1049) and GTP (Roche 10106399001) were added to the assay wells and incubated for an additional 30 min. To determine the extent of inhibition of SOS-mediated nucleotide exchange, purified GST-tagged cRAF (aa 1-149), nickel chelate AlphaLISA acceptor beads (PerkinElmer AL108R), and AlphaScreen glutathione donor beads (PerkinElmer 6765302) were added to the assay wells and incubated for 10 minutes. The assay plates were then read on a PerkinElmer EnVision Multilabel Reader, using AlphaScreen® technology, and data were analyzed using a 4-parameter logistic model to calculate IC50 values.

[3] = Homo sapiens, MIA PaCa-2, 2 h compound treatment

Sequence of GDP-bound KRAS protein (aa 1-169), containing both G12C and C118A amino acid substitutions (P01116 1-169 isoform P01116-2 G12C/C118A): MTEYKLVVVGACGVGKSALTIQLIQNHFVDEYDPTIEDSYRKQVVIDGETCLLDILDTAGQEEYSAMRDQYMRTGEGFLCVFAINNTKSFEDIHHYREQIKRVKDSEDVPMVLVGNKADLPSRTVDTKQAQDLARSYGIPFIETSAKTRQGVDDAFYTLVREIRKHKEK

SMILES | IC50 [1, 3] | Coupled exchange IC50 (5 min; μM) [2] | IC50 ([1]; 2 h compound treatment)
CC(C)c1ncnc(C(C)C)c1-n1c(=O)c(C#N)c(N2CCN(C(=O)/C=C/CNC(C)(C)C)CC2)c2cc(Cl)c(-c3ccccc3F)nc21 [Example 5.2, (E)-4-(4-(4-(tert-butylamino)but-2-enoyl)piperazin-1-yl)-6-chloro-1-(4,6-diisopropylpyrimidin-5-yl)-7-(2-fluorophenyl)-2-oxo-1,2-dihydro-1,8-naphthyridine-3-carbonitrile] | 0.39 µM | 0.44 µM | –
C=CC(=O)N1CCN(c2c(C#N)c(=O)n(-c3c(C)ccnc3C(C)C)c3nc(-c4ccccc4F)c(Cl)cc23)CC1 [Example 6, 4-(4-Acryloylpiperazin-1-yl)-6-chloro-7-(2-fluorophenyl)-1-(2-isopropyl-4-methylpyridin-3-yl)-2-oxo-1,2-dihydro-1,8-naphthyridine-3-carbonitrile] | – | 0.17 µM | 0.17 µM
C=CC(=O)N1CCN(c2c(C#N)c(=O)n(-c3c(N(C)C)ccnc3C(C)C)c3nc(-c4ccccc4F)c(Cl)cc23)CC1 (single isomer, unassigned) [Example 8.6, 4-(4-acryloylpiperazin-1-yl)-6-chloro-1-(4-(dimethylamino)-2-isopropylpyridin-3-yl)-7-(2-fluorophenyl)-2-oxo-1,2-dihydro-1,8-naphthyridine-3-carbonitrile] | 0.16 µM | 0.25 µM | –
CC(C)c1ncnc(C(C)C)c1-n1c(=O)c(C#N)c(N2CCN(C(=O)/C=C/CN(C)C)CC2)c2cc(Cl)c(-c3ccccc3F)nc21 [Example 3, (E)-6-Chloro-1-(4,6-diisopropylpyrimidin-5-yl)-4-(4-(4-(dimethylamino)but-2-enoyl)piperazin-1-yl)-7-(2-fluorophenyl)-2-oxo-1,2-dihydro-1,8-naphthyridine-3-carbonitrile] | 0.72 µM | 0.4 µM | –
C=CC(=O)N1CCN(c2c(C#N)c(=O)n(-c3c(C(C)C)ccnc3C(C)C)c3nc(-c4ccccc4F)c(Cl)cc23)CC1 (racemic) [Example 8, 4-(4-Acryloylpiperazin-1-yl)-6-chloro-1-(2,4-diisopropylpyridin-3-yl)-7-(2-fluorophenyl)-2-oxo-1,2-dihydro-1,8-naphthyridine-3-carbonitrile] | 0.12 µM | 0.06 µM | –
C=CC(=O)N1CCN(c2c(C#N)c(=O)n(-c3c(C)ccnc3C(C)C)c3nc(-c4ccccc4F)c(Cl)cc23)C[C@H]1C [Example 6.2, (R)-4-(4-acryloyl-3-methylpiperazin-1-yl)-6-chloro-7-(2-fluorophenyl)-1-(2-isopropyl-4-methylpyridin-3-yl)-2-oxo-1,2-dihydro-1,8-naphthyridine-3-carbonitrile] | 0.14 µM | 0.28 µM | –
CC(C)NC/C=C/C(=O)N1CCN(c2c(C#N)c(=O)n(-c3c(C(C)C)ncnc3C(C)C)c3nc(-c4ccccc4F)c(Cl)cc23)CC1 [Example 5.1, (E)-6-chloro-1-(4,6-diisopropylpyrimidin-5-yl)-7-(2-fluorophenyl)-4-(4-(4-(isopropylamino)but-2-enoyl)piperazin-1-yl)-2-oxo-1,2-dihydro-1,8-naphthyridine-3-carbonitrile] | 0.56 µM | 0.44 µM | –
CC(C)c1ncnc(C(C)C)c1-n1c(=O)c(C#N)c(N2CCN(C(=O)/C=C/CNC3CC3)CC2)c2cc(Cl)c(-c3ccccc3F)nc21 [Example 5, (E)-6-Chloro-4-(4-(4-(cyclopropylamino)but-2-enoyl)piperazin-1-yl)-1-(4,6-diisopropylpyrimidin-5-yl)-7-(2-fluorophenyl)-2-oxo-1,2-dihydro-1,8-naphthyridine-3-carbonitrile] | 0.76 µM | 0.70 µM | –
C=CC(=O)N1CCN(c2c(C#N)c(=O)n(-c3c(C)ccnc3C(C)C)c3nc(-c4ccccc4C(C)C)c(Cl)cc23)CC1 (single isomer, unassigned) [Example 11.3, 4-(4-acryloylpiperazin-1-yl)-6-chloro-1-(2-isopropyl-4-methylpyridin-3-yl)-7-(2-isopropylphenyl)-2-oxo-1,2-dihydro-1,8-naphthyridine-3-carbonitrile] | 0.09 µM | 0.05 µM | –
CC(C)c1ncnc(C(C)C)c1-n1c(=O)c(C#N)c(N2CCN(C(=O)/C=C/CN)CC2)c2cc(Cl)c(-c3ccccc3F)nc21 [Example 4.1, (E)-4-(4-(4-aminobut-2-enoyl)piperazin-1-yl)-6-chloro-1-(4,6-diisopropylpyrimidin-5-yl)-7-(2-fluorophenyl)-2-oxo-1,2-dihydro-1,8-naphthyridine-3-carbonitrile] | 0.16 µM | 0.18 µM | –
